Assays:
[1] = tested on: THP1 cells; test: RNA-seq transcriptome profiling of THP1 cells in high glucose (differential expression, GO, GSEA); type: cell-based, human; conditions: for biological processes (BPs) suppressed (GSEA): HG treated THP1 cells; for number of downregulated genes, compound+HG versus HG / number of upregulated genes, compound+HG versus HG / rank of TXNIP gene among differentially expressed genes / number of HG-induced genes inhibited by the compound (overlap): THP1, 25 mM glucose; for number of downregulated genes, compound+HG versus HG / number of upregulated genes, compound+HG versus HG / rank of TXNIP gene among differentially expressed genes / functions of downregulated genes (Gene ontology analysis): 5 uM; for number of downregulated genes, compound+HG versus HG / number of upregulated genes, compound+HG versus HG / functions of downregulated genes (Gene ontology analysis): fold change ≥2 and FDR<5%; for rank of TXNIP gene among differentially expressed genes: p-value close to 0; for number of HG-induced genes inhibited by the compound (overlap): 72 hours, 2.5 um compound, FC >2 or <0.5, FDR-adjusted p <0.05; for number of HG upregulated genes downregulated by both C30 and C38: THP1, FC≥1.5 & FDR<5%; for functions of downregulated genes (Gene ontology analysis) / normalized enrichment score (NES), HG-downregulated genes (GSEA) / normalized enrichment score (NES), HG-upregulated genes (GSEA): THP1 in HG; for normalized enrichment score (NES), HG-downregulated genes (GSEA) / normalized enrichment score (NES), HG-upregulated genes (GSEA): with versus without compound
Experimental: FIGS. 10A-10C. C30 and C38 inhibit the same subset of genes induced by high glucose (HG). THP1 cell were cultured in RPMI 1640 medium under 25 mM glucose for 72 hours with […] C30 or C38. Total RNA was prepared and sent for RNA-seq. Differential expression analysis was conducted as described in the Methods. […] FIG. 10A: Overlap between HG-induce genes and C30-inhibited genes in THP1 cells. FIG. 10B: Overlap between HG-induce genes and C38-inhibited genes in THP1 cells. FIG. 10C: Overlap between common genes from FIG. 10A (60 genes) and common genes from FIG. 10B (64 genes).
FIGS. 11A-11B. FIG. 11A: Heatmap of 60 high glucose-responsive and C30/C38-inhibited genes. Differential expression was calculated using these counts with edgeR (5, 6) version 3.0. After correcting for differences in library sizes, a fold change of >1.5 and a p-value of <0.05 were applied to select expressed genes. Overlapped genes were used for generating heatmap using Java TreeView. NG: THP1 under 5 mM glucose; HG: THP1, 25 mM glucose; C30: THP1, 25 mM glucose, 5 uM C30; C38: THP1, 25 mM glucose, 5 uM C38. All are replicates. From top to bottom: HSD11B1, EGR1, NFE2, CCL2, TIFAB, SH2D2A, UHRF1, CD52, TIMP3, TNF, S100P, PAQR4, LY6E, VPS9D-AS, RNASE3, MIR4258, GAS6, LIMD2, MBOAT7, CFD, PKMYT1, CHAC1, MFNG, DEFB1, ICAM2, NT5DC2, GPR35, HINT2, SEPT5-GP1BB, NRSN2, CDH24, SLC37A2, ADAT3, LST1, SPNS3, LTB, H2AFX, FUOM, FAM163A, BATF3, TMEM160, CITED4, MIR3661, TNFSF14, SLC6A9, TONSL, AVEN, SUSD3, TSPO, DDIT4, CKB, SLC22A31, HAAO, MF5SD3, SLC38A5, SIGMAR1, RGMA, DNPH1, ADGRE5, C20orf24, GATA2, RAB37, GDPD5, GAREM2, PIGQ, IMPA2, CRYBB2P1, UCP2, RELB, FOXL2, STC2, HOXA11-AS, MIR1282, RTN2, ZNF511, STARD10, NRM, NF2, ITGB7, POMGNT, KLF10, KLF2, NECAB2, C6orf223, IGFBP4, ACP2, TMEM161A, RHBDD2, YDJC, G0S2, FAM20C, TKTL1, PDIA3P1, HCST, FBXL15, LINC00116, FLNA, TXNIP, MIR3687-1, ARRDC4.
FIG. 21. Volcano plots on gene expression changes induced by TXNIP inhibitors (C30 or C38) under high glucose (HG) conditions in THP1 cells. Gene expression in THP cells grown in HG were treated with and without C30 or C38 and profiled by RNAseq. Expression of RefSeq genes with rpkm≥5 in at least one sample were TMM-normalized and compared in cells treated with HG plus C30 or C38 (C30+HG or C38+HG) versus the cells treated with HG alone using edgeR (v 3.28.1). […] Each dot represents one gene with fold change (in log 2 format) in C30/C38+HG sample vs. HG as x-axis and significance level (in −log 10 format) as y-axis.
FIG. 22. Enriched BPs on DEGs induced by TXNIP inhibitors. […] The enriched BPs were identified at FDR<5% using enrichGO R package and up to 15 BPs with the most significant enrichment are shown as horizontal bar plots. In each bar, number of DEGs in the BP is presented by y-axis and the enrichment significance is represented by different grey-scale colors indicated in the color bar.
FIG. 24. Impact of C30/C38 treatment on HG-regulated genes by GSEA analysis. […] In the analysis for each treatment (C30 or C38), all the expressed genes were ranked based on the signed significance levels, −log10 Pvalue with signs determined by FC (positive if FC>1 and negative if FC<1), on each gene's expression difference between samples with and without treatment. The overall gene expression difference in THP1 cells (in HG condition) treated with or without C30/C38 on these two genesets were analyzed using pre-ranked GSEA analysis.
FIG. 25. […] All the expressed genes were ranked based on the signed significance levels of each gene's expression difference (C30+HG vs. HG). […] In the plot shown, each bubble represents one geneset. […] Genesets related to BPs are represented by solid black bubbles and related to HG regulated genesets are shown as hollow black bubbles.
FIG. 26. […] All the expressed genes were ranked based on the signed significance levels of each gene's expression difference (C38+HG vs. HG). […] In the plot, each bubble represents one geneset. […]

[2] = tested on: human islets; test: BCL2/BAX ratio (apoptosis marker) in human islets under high glucose plus cytokines; type: cell-based; conditions: 25 mM glucose + TNFα, IL1β, IFNγ, 40 hours
Experimental: FIGS. 18A-18B. C30 and C38 compounds protect cells from apoptosis in human islets. 100 IEQ human islets (Hu 1178) were cultured in PIM(R)© containing NG (5.8 mM glucose) or HG (25 mM glucose), and TNFα (20 ng/ml), IL1β (20 ng/ml), IFNγ (200 ng/ml) for 40 hours with or without lead compounds. Total RNA was prepared and RT PCR performed. FIG. 18A: BCL2/BAX ratios are the mean±SEM from triplicates. Statistical analysis was performed for each column vs. HG, 3 cytokines using one-way ANOVA: *p<0.002. FIG. 18B: TXNIP relative mRNA levels. Data shown are the mean±SEM from triplicates. Statistical analysis was performed for each column vs. HG, 3 cytokines using one-way ANOVA: **p<0.0001.
In T1D, β-cell death involves necrosis and apoptosis. BCL2 limits BAX/BAK oligomerization, to impede the release of several apoptogenic molecules from mitochondria. Also, BCL2 binds to and inactivates BAX and other pro-apoptotic proteins, thereby inhibiting apoptosis. BAX and BAK disrupt the integrity of the mitochondrial outer membrane to promote apoptotic cell death. As such, the BCL2/BAX ratio is used as a marker of cell susceptibility to apoptosis. High levels of this ratio can serve as an indicator of the resistance of human cells to apoptosis. […]

Compound | biological processes (BPs) suppressed (GSEA) [1] | number of downregulated genes, compound+HG versus HG [1] [genes] | number of upregulated genes, compound+HG versus HG [1] [genes] | rank of TXNIP gene among differentially expressed genes [1] | number of HG-induced genes inhibited by the compound (overlap) [1] [genes] | number of HG upregulated genes downregulated by both C30 and C38 [1] [genes] | functions of downregulated genes (Gene ontology analysis) [1] | normalized enrichment score (NES), HG-downregulated genes (GSEA) [1] | normalized enrichment score (NES), HG-upregulated genes (GSEA) [1] | BCL2/BAX ratio [2]
COc1cc(N2CC[C@@H](c3ccc4ccccc4c3)[C@H](O)C2)nc(N)n1 [Compound C30] | strongly suppresses BPs related to DNA replication, cell cycle, lipopolysaccharide metabolic process | 571 | 746 | most-significantly downregulated gene | 60 | 23 | substantially inhibit functions related to immune/inflammation response | 1.63 | −1.84 | significantly increased BCL2/BAX ratios
c1ccc(CCNc2ncnc3c2oc2ccccc23)cc1 [Compound C38] | suppressing BPs involved in metabolic process, DNA replication, immune response, splicing | 537 | 741 | most-significantly downregulated gene | 64 | 23 | substantially inhibit functions related to immune/inflammation response | 1.83 | −1.98 | significantly increased BCL2/BAX ratios
